According to patent US9550739B2, “Molecules having certain pesticidal utilities, and intermediates, compositions, and processes related thereto” (priority 2014, dated 2017):

Tests used:
Assay type in all cases: in vivo
[1] = tested on: Cabbage Looper (Trichoplusia ni, TRIPNI) ("CL"); test: Bioassays on Cabbage Looper (CL), 128-well diet tray assay; settings: Trichoplusia ni, 168 h, read-out: CL % Control (or Mortality) rating
Experimental: (§1) Certain molecules disclosed in this document were tested against BAW and CEW using procedures described in the following examples. In the reporting of the results, the “BAW & CL Rating Table” was used (See Table Section).
Bioassays on CL were conducted using a 128-well diet tray assay. one to five second instar CL larvae were placed in each well (3 mL) of the diet tray that had been previously filled with 1 mL of artificial diet to which 50 μg/cm^2 of the test compound (dissolved in 50 μL of 90:10 acetone-water mixture) had been applied (to each of eight wells) and then allowed to dry. Trays were covered with a clear self-adhesive cover and held at 25° C., 14:10 light-dark for five to seven days. Percent mortality was recorded for the larvae in each well; activity in the eight wells was then averaged. The results are indicated in the table entitled “Table ABC: Biological Results” (See Table Section).

[2] = tested on: Yellow Fever Mosquito (Aedes aegypti, AEDSAE) ("YFM"); settings: about 1 day-old larvae, 4000 ppm master solution diluted, 3 days, room temperature
Experimental: Certain molecules disclosed in this document were tested against YFM using procedures described in the following paragraph. In the reporting of the results, the “YFM Rating Table” was used (See Table Section).
Master plates containing 400 μg of a molecule dissolved in 100 μL of dimethyl sulfoxide (DMSO) (equivalent to a 4000 ppm solution) are used. A master plate of assembled molecules contains 15 μL per well. To this plate, 135 μL of a 90:10 water:acetone mixture is added to each well. A robot (Biomek® NXP Laboratory Automation Workstation) is programmed to dispense 15 μL aspirations from the master plate into an empty 96-well shallow plate (“daughter” plate). There are 6 reps (“daughter” plates) created per master. The created daughter plates are then immediately infested with YFM larvae.
The day before plates are to be treated, mosquito eggs are placed in Millipore water containing liver powder to begin hatching (4 g. into 400 mL). After the daughter plates are created using the robot, they are infested with 220 μL of the liver powder/larval mosquito mixture (about 1 day-old larvae). After plates are infested with mosquito larvae, a non-evaporative lid is used to cover the plate to reduce drying. Plates are held at room temperature for 3 days prior to grading. After 3 days, each well is observed and scored based on mortality.

[3] = tested on: Beet Armyworm (Spodoptera exigua, LAPHEG) ("BAW"); test: Bioassays on Beet Armyworm (BAW), 128-well diet tray assay; settings: Spodoptera exigua, 168 h; second instar BAW larvae, 50 μg/cm^2 on artificial diet, five to seven days, 25° C.; read-out: BAW % Control (or Mortality) rating
Experimental: as §1
Bioassays on BAW were conducted using a 128-well diet tray assay. one to five second instar BAW larvae were placed in each well (3 mL) of the diet tray that had been previously filled with 1 mL of artificial diet to which 50 μg/cm^2 of the test compound (dissolved in 50 μL of 90:10 acetone-water mixture) had been applied (to each of eight wells) and then allowed to dry. Trays were covered with a clear self-adhesive cover and held at 25° C., 14:10 light-dark for five to seven days. Percent mortality was recorded for the larvae in each well; activity in the eight wells was then averaged. The results are indicated in the table entitled “Table ABC: Biological Results” (See Table Section).

Row | SMILES | mortality at 50 µg/cm2 [1] | YFM % Control (or Mortality) rating [2] | mortality at 50 µg/cm2 [3]
1 | O=C(Nc1ccc(-c2ncn(-c3ccc(OC(F)(F)F)cc3)n2)cc1)c1cccc(-c2ccccc2OC(F)(F)F)c1 [F1, 2′-(Trifluoromethoxy)-N-(4-(1-(4-(trifluoromethoxy)phenyl)-1H-1,2,4-triazol-3-yl)phenyl)-[1,1′-biphenyl]-3-carboxamide] | 50 to 100% | D (No activity noticed in this bioassay) | 0%
2 | O=C(Nc1ccc(-c2ncn(-c3ccc(OC(F)(F)F)cc3)n2)cc1)c1cc(Cl)cc(-c2ccccc2)c1 [F43, 5-Chloro-N-(4-(1-(4-(trifluoromethoxy)phenyl)-1H-1,2,4-triazol-3-yl)phenyl)-[1,1′-biphenyl]-3-carboxamide] | 50 to 100% | D (No activity noticed in this bioassay) | 50 to 100%
3 | CCN(C(=O)c1ccc(F)c(-c2ccccc2OC)c1)c1ccc(-c2ncn(-c3ccc(OC(F)(F)F)cc3)n2)cc1 [F64, N-Ethyl-6-fluoro-2′-methoxy-N-(4-(1-(4-(trifluoromethoxy)phenyl)-1H-1,2,4-triazol-3-yl)phenyl)-[1,1′-biphenyl]-3-carboxamide] | 50 to 100% | D (No activity noticed in this bioassay) | 50 to 100%
4 | O=C(Nc1ccc(-c2ncn(-c3ccc(C(F)(F)F)cc3)n2)cc1)c1ccccn1 [F68, N-(4-(1-(4-(trifluoromethyl)phenyl)-1H-1,2,4-triazol-3-yl)phenyl)picolinamide] | 0% | D (No activity noticed in this bioassay) | 0 to 50%
5 | Cc1ccccc1-c1cc(C(=O)NCCc2ccc(-c3ncn(-c4ccc(OC(F)(F)F)cc4)n3)cc2)ccc1F [F53, 6-Fluoro-2′-methyl-N-(4-(1-(4-(trifluoromethoxy)phenyl)-1H-1,2,4-triazol-3-yl)phenethyl)-[1,1′-biphenyl]-3-carboxamide] | 50 to 100% | A (80-100) | 50 to 100%
6 | O=C(Nc1ccc(-c2ncn(-c3ccc(OC(F)(F)C(F)(F)F)cc3)n2)cc1)c1cccc(-c2ccccc2)n1 [F47, N-(4-(1-(4-(Perfluoroethoxy)phenyl)-1H-1,2,4-triazol-3-yl)phenyl)-6-phenylpicolinamide] | 0% | D (No activity noticed in this bioassay) | 0%
7 | O=C(Nc1ccc(-c2ncn(-c3ccc(OC(F)(F)C(F)(F)F)cc3)n2)cc1)c1cccc(-c2ccccc2)c1 [F45, N-(4-(1-(4-(perfluoroethoxy)phenyl)-1H-1,2,4-triazol-3-yl)phenyl)-[1,1′-biphenyl]-3-carboxamide] | 50 to 100% | D (No activity noticed in this bioassay) | 50 to 100%
8 | Cc1ccccc1-c1cccc(C(=O)Nc2ccc(-c3ncn(-c4ccc(OC(F)(F)F)cc4)n3)cc2)c1 [F17, 2′-Methyl-N-(4-(1-(4-(trifluoromethoxy)phenyl)-1H-1,2,4-triazol-3-yl)phenyl)-[1,1′-biphenyl]-3-carboxamide] | 50 to 100% | D (No activity noticed in this bioassay) | 50 to 100%
9 | COc1ccc(C(=O)Nc2ccc(-c3ncn(-c4ccc(OC(F)(F)C(F)(F)F)cc4)n3)cc2)cc1-c1ccccc1 [F13, 6-Methoxy-N-(4-(1-(4-(perfluoroethoxy)phenyl)-1H-1,2,4-triazol-3-yl)phenyl)-[1,1′-biphenyl]-3-carboxamide] | 50 to 100% | D (No activity noticed in this bioassay) | 0%
10 | CC(C)Oc1ccc(-n2cnc(-c3ccc(NC(=O)c4ccc(F)c(-c5ccccc5)c4)cc3)n2)cc1 [F16, 6-Fluoro-N-(4-(1-(4-isopropoxyphenyl)-1H-1,2,4-triazol-3-yl)phenyl)-[1,1′-biphenyl]-3-carboxamide] | 50 to 100% | B (More than 0-Less than 80) | 0%
